Assay results: patent US10611760B2, “Therapeutic compounds as inhibitors of the orexin-1 receptor” (C4X Discovery Limited, priority 2014, dated 2020)
Where a name gives a salt, the structure may show the parent alone.

Legend:
Assay type in all cases: cell-based
[1] = molecular target: T1, hOX1R (Homo sapiens, UniProt O43613); experiment: Intracellular calcium measurements using stable-replicating cells, Method B (CHO cells, FLIPR Tetra), OX1; settings: orexin A at EC75, read-out: pIC50 OX1 (converted)
T1 sequence (O43613 1-425): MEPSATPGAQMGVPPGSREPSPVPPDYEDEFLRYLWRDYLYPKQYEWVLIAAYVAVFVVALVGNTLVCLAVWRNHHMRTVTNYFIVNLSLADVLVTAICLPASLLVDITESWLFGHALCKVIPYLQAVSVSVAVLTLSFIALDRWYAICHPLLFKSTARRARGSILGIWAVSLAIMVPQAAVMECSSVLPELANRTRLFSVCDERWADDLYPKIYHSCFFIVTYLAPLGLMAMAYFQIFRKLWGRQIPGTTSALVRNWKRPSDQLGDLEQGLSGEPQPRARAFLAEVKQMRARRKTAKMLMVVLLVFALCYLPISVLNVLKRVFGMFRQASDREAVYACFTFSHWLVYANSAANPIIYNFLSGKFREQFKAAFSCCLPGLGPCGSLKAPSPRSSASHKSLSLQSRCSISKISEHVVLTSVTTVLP
Experimental: (§1) Intracellular Calcium Measurements Using Stable-replicating Cells:
(§2) Human OX1 or human OX2 receptor expressing CHO cells are plated into 384 well black, clear bottom, CellBIND plates at a seeding density of 10,000 cells/75 μL growth media. The seeded plates are incubated at 37° C. in air supplemented with 5% CO2 overnight.
(§3) The next day media is removed and replaced with 30 μL/well of cell loading buffer (a vial of Calcium 5 is solubilized in 20 mL of assay buffer) and the cells incubated for 1 hr at 37° C. The serially diluted test compounds (10 μL/well) are added to the cell plate by the FLIPR Tetra and the addition is monitored for 5 mins by the instrument. The cell plate is then removed and incubated for additional 25 mins in a humidified incubator at […] prior to being placed back into the FLIPR Tetra. Finally 10 μL of orexin A in assay buffer +0.1% (w/v) bovine serum albumin is dispensed by the FLIPR Tetra at an EC75 concentration determined for each assay run. Fluorescence is measured at excitation and emission wavelengths of 485 nm and 525 nm respectively and data analyzed using GraphPad Prism for the EC75 value of orexin A and Aplus to determine an IC50 value for each test compound.

[2] = molecular target: T1, hOX1R; experiment: Intracellular calcium measurements using division-arrested cells, OX1; settings: agonist orexin A at 2×EC50, * = single experiment, otherwise average of at least two, read-out: pIC50 OX1 (converted)
Experimental: (§4) Intracellular Calcium Measurements Using Division-arrested Cells (Table 1):
(§5) Test compounds are prepared as 10 mM stock solutions in DMSO, then serially diluted in half log concentrations with DMSO followed by dilution with assay buffer (HBSS (Sigma-Aldrich, H8264) containing 20 mM HEPES (Sigma-Aldrich, H4034), 0.1% (w/v) bovine serum albumin and adjusted to pH 7.4) to a top final assay concentration of 10 μM.
(§6) Human OX1 (CT-A474) and human OX2 (CT-A475) receptor-expressing division-arrested cells are plated into 384 well black, clear bottom, cell-bind plates at a seeding density of 10,000 cells/50 μL growth media. The seeded plates are incubated at 37° C. in air supplemented with 5% CO2 for 16 hrs.
(§7) The media is removed and replaced with 30 μL/well of cell loading buffer (a vial of Calcium 5 is solubilized in 22 mL of assay buffer to which a freshly prepared 250 mM solution of probenecid in 1:1 1M NaOH to assay buffer (200 μL) is added) and the cells incubated for 1 hr at 37° C. The serially diluted test compounds (10 μL/well) are added to the plate, which is then incubated for 10 mins and placed in a FlexStation III reader.

[3] = molecular target: T2, hOX2R (Homo sapiens, UniProt O43614); experiment: Intracellular calcium measurements using division-arrested cells, OX2; settings: agonist orexin B at 2×EC50, * = single experiment, otherwise average of at least two, read-out: pIC50 OX2 (converted)
T2 sequence (O43614 1-444): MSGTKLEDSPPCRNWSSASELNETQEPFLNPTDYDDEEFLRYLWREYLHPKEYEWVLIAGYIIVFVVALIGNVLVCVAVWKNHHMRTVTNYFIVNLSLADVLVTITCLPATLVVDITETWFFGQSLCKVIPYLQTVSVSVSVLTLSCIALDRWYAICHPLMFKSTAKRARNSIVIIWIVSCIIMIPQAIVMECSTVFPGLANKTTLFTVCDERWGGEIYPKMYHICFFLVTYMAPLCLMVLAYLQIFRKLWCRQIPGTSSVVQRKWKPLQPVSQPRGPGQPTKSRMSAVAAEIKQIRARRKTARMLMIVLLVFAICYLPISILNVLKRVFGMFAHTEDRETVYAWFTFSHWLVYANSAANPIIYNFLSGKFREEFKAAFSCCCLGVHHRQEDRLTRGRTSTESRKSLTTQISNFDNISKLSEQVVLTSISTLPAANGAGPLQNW
Experimental: as §4, §5, §6, §7

[4] = molecular target: T2, hOX2R; experiment: Intracellular calcium measurements using stable-replicating cells, Method B (CHO cells, FLIPR Tetra), OX2; settings: orexin A at EC75, read-out: pIC50 OX2 (converted)
Experimental: as §1, §2, §3

| IC50 [1] | IC50 [2] | IC50 [3] | IC50 [4] | SMILES |
| --- | --- | --- | --- | --- |
| 1.58 nM | 25.1 nM | 1580 nM | 501 nM | CC[C@@H](CNc1ccc(Cl)cn1)N(C)C(=O)c1cc(Br)ccc1-n1nccn1 [Example 19, (S)-5-bromo-N-(1-((5-chloropyridin-2-yl)amino)butan-2-yl)-N-methyl-2-(2H-1,2,3-triazol-2-yl)benzamide] |
| 2 nM | – | – | 794 nM | CC[C@@H](CNc1cnc2ccccc2n1)N(C)C(=O)c1nc(C)ccc1-n1nccn1 [Example 65, (S)—N,6-dimethyl-N-(1-(quinoxalin-2-ylamino)butan-2-yl)-3-(2H-1,2,3-triazol-2-yl)picolinamide] |
| 5.01 nM | 31.6 nM | > 5010 nM | > 3980 nM | Cc1ccc(-n2nccn2)c(C(=O)N(C)[C@H](CNc2ccc(Cl)cn2)C(C)C)c1 [Example 49, (S)—N-(1-((5-chloropyridin-2-yl)amino)-3-methylbutan-2-yl)-N,5-dimethyl-2-(2H-1,2,3-triazol-2-yl)benzamide] |
| 3.16 nM | – | – | 3160 nM | Cc1ccc(-n2nccn2)c(C(=O)N(C)[C@H](CNc2ccc(C(F)(F)F)cn2)C(C)C)n1 [Example 69, (S)—N,6-dimethyl-N-(3-methyl-1-((5-(trifluoromethyl)pyridin-2-yl)amino)butan-2-yl)-3-(2H-1,2,3-triazol-2-yl)picolinamide] |
| 2000 nM | – | – | > 10000 nM | Cc1ccc(-n2nccn2)c(C(=O)N(C)[C@H](CNc2ncc(C(F)(F)F)cn2)C2CC2)n1 [Example 74, (S)—N-(1-cyclopropyl-2-((5-(trifluoromethyl)pyrimidin-2-yl)amino)ethyl)-N,6-dimethyl-3-(2H-1,2,3-triazol-2-yl)picolinamide] |
| 25.1 nM | – | – | > 7940 nM | CC[C@@H](CNc1ncc(C(F)(F)F)cn1)N(C)C(=O)c1c(F)cccc1-n1nccn1 [Example 91, (S)-2-fluoro-N-methyl-6-(2H-1,2,3-triazol-2-yl)-N-(1-((5-(trifluoromethyl)pyrimidin-2-yl)amino)butan-2-yl)benzamide] |
| 2000 nM | – | – | > 10000 nM | CC[C@@H](CNc1ncc(C(F)(F)F)cn1)N(C)C(=O)c1nc(C)ccc1-n1cncn1 [Example 89, (S)—N,6-dimethyl-3-(1H-1,2,4-triazol-1-yl)-N-(1-((5-(trifluoromethyl)pyrimidin-2-yl)amino)butan-2-yl)picolinamide formic acid salt] |
| 25.1 nM | – | – | > 2000 nM | CC[C@@H](CNc1ccc2ncccc2n1)N(C)C(=O)c1nc(C)ccc1-n1nccn1 [Example 76, (S)—N-(1-((1,5-naphthyridin-2-yl)amino)butan-2-yl)-N,6-dimethyl-3-(2H-1,2,3-triazol-2-yl)picolinamide] |
| 2 nM | – | – | > 1000 nM | CC[C@@H](CNc1ncc(C(F)(F)F)cn1)N(C)C(=O)c1nc(C)ccc1-n1cccn1 [Example 90, (S)—N,6-dimethyl-3-(1H-pyrazol-1-yl)-N-(1-((5-(trifluoromethyl)pyrimidin-2-yl)amino)butan-2-yl)picolinamide formic acid salt] |
| 20 nM | 200 nM | > 10000 nM | > 5010 nM | CC[C@@H](CNc1ccc(C(F)(F)F)nn1)N(C)C(=O)c1cc(Cl)ccc1-n1nccn1 [Example 41, (S)-5-chloro-N-methyl-2-(2H-1,2,3-triazol-2-yl)-N-(1-((6-(trifluoromethyl)pyridazin-3-yl)amino)butan-2-yl)benzamide] |
| 3980 nM | 2000 nM | > 10000 nM | > 10000 nM | CC[C@@H](CNc1ccc(Cl)cn1)N(C)C(=O)c1cc(C(F)(F)F)cnc1-n1nccn1 [Example 24, (S)—N-(1-((5-chloropyridin-2-yl)amino)butan-2-yl)-N-methyl-2-(2H-1,2,3-triazol-2-yl)-5-(trifluoromethyl)nicotinamide] |
| 1 nM | – | – | 316 nM | CC[C@@H](CNc1ccc(C(F)(F)F)cn1)N(CC)C(=O)c1nc(C)ccc1-n1nccn1 [Example 71, (S)—N-ethyl-6-methyl-3-(2H-1,2,3-triazol-2-yl)-N-(1-((5-(trifluoromethyl)pyridin-2-yl)amino)butan-2-yl)picolinamide] |
| 12.6 nM | – | – | > 1000 nM | CC[C@@H](CN(CCOC)c1ncc(C(F)(F)F)cn1)N(C)C(=O)c1nc(C)ccc1-n1nccn1 [Example 83, (S)—N-(1-((2-methoxyethyl)(5-(trifluoromethyl)pyrimidin-2-yl)amino)butan-2-yl)-N,6-dimethyl-3-(2H-1,2,3-triazol-2-yl)picolinamide] |
| 12.6 nM | – | – | > 631 nM | Cc1ccc(-n2nccn2)c(C(=O)N(C)[C@H](CNc2ncc(C(F)(F)F)cn2)C(C)C)n1 [Example 66, (S)—N,6-dimethyl-N-(3-methyl-1-((5-(trifluoromethyl)pyrimidin-2-yl)amino)butan-2-yl)-3-(2H-1,2,3-triazol-2-yl)picolinamide] |
| 7.94 nM | – | – | > 10000 nM | CC[C@@H](CN(C)c1ncc(C(F)(F)F)cn1)N(C)C(=O)c1nc(C)ccc1-n1nccn1 [Example 82, (S)—N,6-dimethyl-N-(1-(methyl(5-(trifluoromethyl)pyrimidin-2-yl)amino)butan-2-yl)-3-(2H-1,2,3-triazol-2-yl)picolinamide] |
| 100 nM | 200 nM | – | 3160 nM | CC[C@@H](CNc1ccc(Cl)cn1)N(C)C(=O)c1cc(OC(F)(F)F)ccc1-n1nccn1 [Example 20, (S)—N-(1-((5-chloropyridin-2-yl)amino)butan-2-yl)-N-methyl-2-(2H-1,2,3-triazol-2-yl)-5-(trifluoromethoxy)benzamide] |
| 15.8 nM | – | – | > 1000 nM | Cc1ccc(-n2nccn2)c(C(=O)N(C)[C@H](CNc2ncc3ccccc3n2)C(C)C)n1 [Example 68, (S)—N,6-dimethyl-N-(3-methyl-1-(quinazolin-2-ylamino)butan-2-yl)-3-(2H-1,2,3-triazol-2-yl)picolinamide] |
